According to PubChem BioAssay (NCI):
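Five compound concentrations were applied to cells in 96-well plates for 48 hours; endpoints were derived by simple linear interpolation of the resulting dose-response curve. Abbreviation: GI50, concentration required for 50% inhibition of growth. Definition used: TGI = concentration required for complete inhibition of growth.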

How the values were obtained:
Assay in all cases: growth of human tumour cells (NCI), 48 h
[1] = system: EKVX NSCLC
[2] = system: SK-MEL-28 melanoma
[3] = system: NCI-H460 lung
[4] = system: SK-MEL-2 melanoma
[5] = system: MDA-MB-435
[6] = system: HOP-92 NSCLC
[7] = system: OVCAR-4 ovarian
[8] = system: SNB-19 CNS
[9] = system: OVCAR-8 ovarian
[10] = system: U251 CNS
[11] = system: CCRF-CEM leukemia
[12] = system: PC-3 prostate
[13] = system: SF-539 CNS
[14] = system: HCC-2998 colon
[15] = system: SF-268 CNS
[16] = system: CAKI-1 renal
[17] = system: NCI-H522 lung
[18] = system: HL-60(TB) leukemia
[19] = system: BT-549 breast
[20] = system: HS 578T breast
[21] = system: SW-620 colon
[22] = system: A549 NSCLC
[23] = system: T-47D breast
[24] = system: HCT-15 colon
[25] = system: RPMI-8226 leukemia
[26] = system: RXF 393 renal
[27] = system: KM12 colon
[28] = system: IGROV1 ovarian
[29] = system: NCI-H23 lung
[30] = system: UACC-62 melanoma
[31] = system: MOLT-4 leukemia
[32] = system: HCT-116 colon
[33] = system: SF-295 CNS
[34] = system: K-562 leukemia
[35] = system: TK-10 renal
[36] = system: HOP-62 NSCLC
[37] = system: NCI/ADR-RES ovarian
[38] = system: ACHN renal
[39] = system: LOX IMVI melanoma
[40] = system: 786-0 renal
[41] = system: NCI-H226 lung
[42] = system: SK-OV-3 ovarian
[43] = system: M14 melanoma
[44] = system: SK-MEL-5 melanoma
[45] = system: A498 renal
[46] = system: HT29 colon
[47] = system: SN12C renal
[48] = system: MDA-MB-231 breast
[49] = system: OVCAR-5 ovarian
[50] = system: DU-145 prostate
[51] = system: COLO 205 colon
[52] = system: MALME-3M melanoma
[53] = system: OVCAR-3 ovarian
[54] = system: UO-31 renal
[55] = system: UACC-257 melanoma
[56] = system: MCF7 breast
[57] = system: SR leukemia

Compound C=C1C(=O)O[C@H]2[C@H]1CC/C(COC(=O)NCc1ccc(Cn3c(=O)sn(CCCC)c3=O)cc1)=C\CC[C@@]1(C)O[C@@H]21 has a GI50 [1] of 3.32 µM, a TGI [1] of 9.83 µM and a GI50 [2] of 1.8 µM. It also gave a TGI [2] of 3.36 µM, a GI50 [3] of 5.92 µM and a TGI [3] of 19.6 µM. It also gave a GI50 [4] of 4.52 µM, a TGI [4] of 17 µM and a GI50 [5] of 1.65 µM. The TGI [5] was 3.22 µM, the GI50 [6] was 1.29 µM and the TGI [6] was 2.72 µM. It also gave a GI50 [7] of 1.52 µM, a TGI [7] of 3.05 µM and a GI50 [8] of 6.63 µM. For the same compound, the TGI [8] was 19.6 µM, the GI50 [9] was 3.64 µM and the TGI [9] was 15.2 µM. It also gave a GI50 [10] of 4.15 µM, a TGI [10] of 15.5 µM and a GI50 [11] of 0.657 µM. The TGI [11] was 4.56 µM, the GI50 [12] was 1.75 µM and the TGI [12] was 3.56 µM. It also gave a GI50 [13] of 1.68 µM, a TGI [13] of 3.24 µM and a GI50 [14] of 4.1 µM. For the same compound, the TGI [14] was 13.4 µM, the GI50 [15] was 4.28 µM and the TGI [15] was 17.2 µM. The GI50 [16] was 1.64 µM, the TGI [16] was 3.24 µM and the GI50 [17] was 1.19 µM. The TGI [17] was 2.88 µM, the GI50 [18] was 1.81 µM and the TGI [18] was 5.42 µM. For the same compound, the GI50 [19] was 1.56 µM, the TGI [19] was 3.03 µM and the GI50 [20] was 3.24 µM. The TGI [20] was 12.7 µM, the GI50 [21] was 1.51 µM and the TGI [21] was 3.09 µM. It also gave a GI50 [22] of 13.4 µM, a TGI [22] of 28.7 µM and a GI50 [23] of 2.04 µM. For the same compound, the TGI [23] was 4.83 µM, the GI50 [24] was 2.02 µM and the TGI [24] was 3.76 µM. The GI50 [25] was 1.48 µM, the TGI [25] was 4.07 µM and the GI50 [26] was 1.57 µM. For the same compound, the TGI [26] was 3.04 µM, the GI50 [27] was 14.8 µM and the TGI [27] was 29.4 µM. For the same compound, the GI50 [28] was 1.83 µM, the TGI [28] was 3.93 µM and the GI50 [29] was 4.19 µM. For the same compound, the TGI [29] was 15.3 µM, the GI50 [30] was 1.62 µM and the TGI [30] was 3.22 µM. For the same compound, the GI50 [31] was 1.55 µM, the TGI [31] was 5.73 µM and the GI50 [32] was 1.36 µM. It also gave a TGI [32] of 2.78 µM, a GI50 [33] of 15.3 µM and a TGI [33] of 29 µM. The GI50 [34] was 0.891 µM, the TGI [34] was greater than 100 µM and the GI50 [35] was 1.81 µM. For the same compound, the TGI [35] was 3.59 µM, the GI50 [36] was 12.7 µM and the TGI [36] was 26.6 µM. The GI50 [37] was 27.8 µM, the TGI [37] was 97.9 µM and the GI50 [38] was 1.67 µM. For the same compound, the TGI [38] was 3.08 µM, the GI50 [39] was 1.65 µM and the TGI [39] was 3.08 µM. It also gave a GI50 [40] of 2 µM, a TGI [40] of 4.02 µM and a GI50 [41] of 11.9 µM. It also gave a TGI [41] of 29.8 µM, a GI50 [42] of 15.2 µM and a TGI [42] of 28.7 µM. For the same compound, the GI50 [43] was 1.45 µM, the TGI [43] was 2.97 µM and the GI50 [44] was 3.18 µM. For the same compound, the TGI [44] was 9.48 µM, the GI50 [45] was 3.28 µM and the TGI [45] was 14.1 µM. The GI50 [46] was 2.08 µM, the TGI [46] was 4.18 µM and the GI50 [47] was 1.73 µM. It also gave a TGI [47] of 3.93 µM, a GI50 [48] of 1.8 µM and a TGI [48] of 3.57 µM. For the same compound, the GI50 [49] was 1.93 µM, the TGI [49] was 4.06 µM and the GI50 [50] was 1.81 µM. For the same compound, the TGI [50] was 3.36 µM, the GI50 [51] was 2 µM and the TGI [51] was 3.88 µM. The GI50 [52] was 1.6 µM, the TGI [52] was 3.32 µM and the GI50 [53] was 1.59 µM. The TGI [53] was 2.97 µM, the GI50 [54] was 1.45 µM and the TGI [54] was 2.78 µM. The GI50 [55] was 2.03 µM, the TGI [55] was 4.93 µM and the GI50 [56] was 1.87 µM. For the same compound, the TGI [56] was 3.91 µM, the GI50 [57] was 0.407 µM and the TGI [57] was 5.39 µM.
